Data from patent publication US9604946B2, “Methods for modulating bacterial virulence and related compounds” (priority 2013, dated 2017).

Experiments:
EHEC = test: qRT-PCR of gene expression in EHEC as change from wild-type expression; type: cell-based, enterohemorrhagic E. coli; conditions: 5 and 500 nM compound
S. Typhimurium = S. Typhimurium replication in J774 macrophages with and without compound; type: cell-based; conditions: 500 and 5 nM compound
Experimental: Compounds CF325, CF326, CF327, CF329, CF330, CF331, CF332, CF333, CF334, CF338, CF339, CF340, CF341, CF342, CF343, CF344, CF345, CF349, CF350, CF351, and CF352 were screened by measuring the inhibition of S. Typhimurium replication in the presence (500 and 5 nM) and absence of the compound with J774 macrophage or using a qRT PCR study comparing the levels of gene expression in the presence of 5 and 500 nM concentrations of the target compound. Compounds CF331, CF338, CF340, CF341 and CF345 were also screened using a fluorescein actin staining test to determine the number of HeLa cells infected by measuring the inhibition of AE lesion formation.

QseC = QseC (Escherichia coli O157:H7, UniProt Q8X524); conditions: earlier work, U.S. Pat. No. 8,252,841; Clarke et al., 2006; Rasko et al., 2008; cited from earlier work
Chain of QseC (Q8X524 whole entry): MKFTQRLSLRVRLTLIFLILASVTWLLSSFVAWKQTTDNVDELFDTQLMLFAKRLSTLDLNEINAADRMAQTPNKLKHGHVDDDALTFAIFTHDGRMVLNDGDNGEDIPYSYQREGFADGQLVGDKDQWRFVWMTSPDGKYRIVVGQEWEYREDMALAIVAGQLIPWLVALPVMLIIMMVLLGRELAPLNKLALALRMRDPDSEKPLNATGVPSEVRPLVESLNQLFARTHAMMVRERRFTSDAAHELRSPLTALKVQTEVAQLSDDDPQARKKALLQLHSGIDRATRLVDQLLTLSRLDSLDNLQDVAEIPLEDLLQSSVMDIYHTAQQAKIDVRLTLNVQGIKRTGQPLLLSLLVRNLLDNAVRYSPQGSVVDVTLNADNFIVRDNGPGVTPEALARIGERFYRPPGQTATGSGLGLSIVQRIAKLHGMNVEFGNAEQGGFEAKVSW

A. baumannii = test: Biofilm formation by A. baumannii; type: cell-based, Acinetobacter baumannii; conditions: acts through QseC

Compound: CCOC(=O)c1csc(NC(=O)C23CC4CC(C)(CC(C)(C4)C2)C3)n1 [CF351]
- activity on virulence of EHEC (gene expression level by qRT-PCR) (EHEC): acted as agonist of virulence

Compound: COc1ccc(C(=O)Nc2nc(-c3ccc(C)cc3)cs2)c(OC)c1 [CF329]
- modulation of S. Typhimurium virulence (intra J774 macrophage replication) (S. Typhimurium): showed little modulation of the virulence of S. Typhimurium
- activity on virulence of EHEC (gene expression level by qRT-PCR) (EHEC): antagonist activity against the virulence of EHEC

Compound: CC12CC3CC(C)(C1)CC(C(=O)Nc1nccs1)(C3)C2 [CF345]
- activity on virulence of EHEC (gene expression level by qRT-PCR) (EHEC): antagonist activity against the virulence of EHEC
- rank of modulation of bacterial virulence among the EHEC antagonist compounds (EHEC): greatest modulation of bacterial virulence

Compound: CC12CC3CC(C)(C1)CC(C(=O)Nc1ncco1)(C3)C2 [CF349]
- activity on virulence of EHEC (gene expression level by qRT-PCR) (EHEC): acted as agonist of virulence

Compound: COc1ccc(C(=O)Nc2nccs2)c(OC)c1 [CF326]
- modulation of S. Typhimurium virulence (intra J774 macrophage replication) (S. Typhimurium): showed potency in preventing S. Typhimurium virulence
- activity on virulence of EHEC (gene expression level by qRT-PCR) (EHEC): antagonist activity against the virulence of EHEC

Compound: O=C(Nc1nccs1)c1c(Cl)cc(Cl)cc1Cl [CF334]
- activity on virulence of EHEC (gene expression level by qRT-PCR) (EHEC): acted as agonist of virulence

Compound: Cc1ccc(N(CC2=NCCN2)c2cccc(O)c2)cc1 [phentolamine]
- block of QseC response to the signal (QseC): block this response
- inhibition of biofilm formation (A. baumannii): inhibited

Compound: O=C(Nc1nccs1)C12CC3CC(CC(C3)C1)C2 [CF331]
- activity on virulence of EHEC (gene expression level by qRT-PCR) (EHEC): antagonist activity against the virulence of EHEC
- rank of modulation of bacterial virulence among the EHEC antagonist compounds (EHEC): greatest modulation of bacterial virulence

Compound: COc1cccc(OC)c1C(=O)Nc1nccs1 [CF332]
- modulation of S. Typhimurium virulence (intra J774 macrophage replication) (S. Typhimurium): showed little modulation of the virulence of S. Typhimurium

Compound: COc1ccc(C(=O)Nc2nc(C)c(C)s2)c(OC)c1 [CF333]
- activity on virulence of EHEC (gene expression level by qRT-PCR) (EHEC): antagonist activity against the virulence of EHEC

Compound: O=S(=O)(Nc1ccccc1)c1ccc(NC(=S)Nc2ccccc2)cc1 [LED209]
- block of QseC response to the signal (QseC): can block the QseC response to the signal

Compound: CC12CC3CC(C)(C1)CC(C(=O)Nc1ncc(F)s1)(C3)C2 [CF354]
- activity on virulence of EHEC (gene expression level by qRT-PCR) (EHEC): antagonist activity against the virulence of EHEC

Compound: CC12CC3CC(C)(C1)CC(C(=O)Nc1nc(C#N)cs1)(C3)C2 [CF352]
- activity on virulence of EHEC (gene expression level by qRT-PCR) (EHEC): antagonist activity against the virulence of EHEC

Compound: CC(=O)Nc1nccs1 [CF327]
- modulation of S. Typhimurium virulence (intra J774 macrophage replication) (S. Typhimurium): showed little modulation of the virulence of S. Typhimurium
- activity on virulence of EHEC (gene expression level by qRT-PCR) (EHEC): acted as agonist of virulence

Compound: COc1ccc(C(=O)Nc2ncc[nH]2)c(OC)c1 [CF330]
- activity on virulence of EHEC (gene expression level by qRT-PCR) (EHEC): acted as agonist of virulence

Compound: O=C(Nc1nccs1)c1c(F)cc(F)cc1F [CF325]
- modulation of S. Typhimurium virulence (intra J774 macrophage replication) (S. Typhimurium): showed potency in preventing S. Typhimurium virulence
